Experimental data as given in patent US20210110884A1 (priority 2019, published 2021).

Tests used:
E. coli DHFR = molecular target: T1, E. coli DHFR (Escherichia coli, UniProt P0ABQ4); format: biochemical
T1 sequence (P0ABQ4 1-159): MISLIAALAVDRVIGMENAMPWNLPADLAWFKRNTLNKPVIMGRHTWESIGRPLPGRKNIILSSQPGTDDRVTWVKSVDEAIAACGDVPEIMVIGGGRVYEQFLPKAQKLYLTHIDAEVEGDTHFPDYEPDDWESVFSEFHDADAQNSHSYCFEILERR

[1] = format: biochemical

CC(C)O [isopropanol]
decrease of hydride transfer by E. coli DHFR (E. coli DHFR): 2.2 fold | pH independent rate for hydride transfer (E. coli DHFR): 530±10 s^−1

B1: BChEG117: butyrylcholinesterase as printed without H; apparently the enzyme lacking the G117H mutation (protein, UniProt P06276 29-602, looked up)
Cholinesterase: EDDIIIATKNGKVRGMNLTVFGGTVTAFLGIPYAQPPLGRLRFKKPQSLTKWSDIWNATKYANSCCQNIDQSFPGFHGSEMWNPNTDLSEDCLYLNVWIPAPKPKNATVLIWIYGGGFQTGTSSLHVYDGKFLARVERVIVVSMNYRVGALGFLALPGNPEAPGNMGLFDQQLALQWVQKNIAAFGGNPKSVTLFGESAGAASVSLHLLSPGSHSLFTRAILQSGSFNAPWAVTSLYEARNRTLNLAKLTGCSRENETEIIKCLRNKDPQEILLNEAFVVPYGTPLSVNFGPTVDGDFLTDMPDILLELGQFKKTQILVGVNKDEGTAFLVYGAPGFSKDNNSIITRKEFQEGLKIFFPGVSEFGKESILFHYTDWVDDQRPENYREALGDVVGDYNFICPALEFTKKFSEWGNNAFFYYFEHRSSKLPWPEWMGVMHGYEIEFVFGLPLERRDNYTKAEEILSRSIVKRWANFAKYGNPNETQNNSTSWPVFKSTEQKYLTLNTESTRIMTKLRAQQCRFWTSFFPKVLEMTGNIDEAEWEWKAGFHRWNNYMMDWKNQFNDYTSKKESCVGL
inhibition by selected OP concentrations [1]: > 99%
